Consider 3 molecules from ChEMBL document CHEMBL3739284, “Anteaglonialides A-F and Palmarumycins CE(1)-CE(3) from Anteaglonium sp. FL0768, a Fungal Endophyte of the Spikemoss Selaginella arenicola” (J Nat Prod, 2015).

Broadly, the IC50 is the concentration that inhibits the measured activity by half. Read a high IC50 as lower potency.

The nature of the experiment: Cytotoxicity against human CHP100 cells after 24 hrs by MTT assay. It is filed as functional, cell-based. The conditions noted are these: CHP100, 24 h. A general note: Formazan colour is commonly taken as a measure of viable cells.
`O=C1C=CC2(Oc3cccc4cccc(c34)O2)[C@H]([C@H]2CCC(=O)O2)C1` gave an IC50 of 1400 nM.

Molecule `O=C1C=C[C@H]2O[C@H]3CC(=O)[C@@H]1[C@@H]2C31Oc2cccc3cccc(c23)O1` came in with an IC50 of 400 nM.

`O=C1C=CC2(Oc3cccc4cccc(c34)O2)c2cccc(O)c21` gave an IC50 of 1600 nM.
